Measured values: patent US20250313563A1, “GLYCOGEN SYNTHASE KINASE 3 INHIBITORS AND USES THEREOF” (The Broad Institute, Inc., priority 2022, published 2025)
Where two headings read alike, the source gives them in different places.

How the values were obtained:
[1] = target: GSK3b (GST-full length GSK3b) (Homo sapiens (Human), UniProt P49841); experiment: GSK3b TR-FRET kinase assay; type: biochemical; settings: 1 nM GSK3b, 2 μM ATP, 30 minute preincubation, read-out: GSK3-B TR-FRET BIOCHEMICAL (TR-FRET)
In short: (§1)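 Compound was preincubated 30 min with 1 nM GST-GSK3 enzyme. Reaction ran 100 min at ambient temperature in Tris pH 7.5/MgCl2 with 200 nM biotinylated pS645-glycogen synthase 631-650 peptide and ATP (4 μM GSK3α, 2 μM GSK3b, or 1 mM). The EDTA-stopped reaction was read by TR-FRET (Tb-anti-pSer641/streptavidin-d2), and IC50s were fitted.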

[2] = target: GSK3α (GST-full length GSK3α) (Homo sapiens (Human), UniProt P49840); experiment: GSK3α TR-FRET kinase assay; type: biochemical; settings: 1 nM GSK3α, 4 μM ATP, 30 minute preincubation, read-out: GSK3-A TR-FRET BIOCHEMICAL (TR-FRET)
In short: as §1

Chain of GSK3b (GST-full length GSK3b) (P49841 whole entry): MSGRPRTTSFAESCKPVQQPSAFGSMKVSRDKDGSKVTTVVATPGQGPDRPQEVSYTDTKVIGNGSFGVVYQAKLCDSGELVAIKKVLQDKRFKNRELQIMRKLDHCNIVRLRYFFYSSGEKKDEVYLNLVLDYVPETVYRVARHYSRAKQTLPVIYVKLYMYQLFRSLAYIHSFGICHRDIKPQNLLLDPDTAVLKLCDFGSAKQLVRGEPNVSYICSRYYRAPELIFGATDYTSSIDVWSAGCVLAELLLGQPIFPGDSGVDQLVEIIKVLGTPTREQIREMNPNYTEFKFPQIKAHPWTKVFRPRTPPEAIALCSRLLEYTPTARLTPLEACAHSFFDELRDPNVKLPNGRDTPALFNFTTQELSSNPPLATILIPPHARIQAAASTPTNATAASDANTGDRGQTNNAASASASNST
Chain of GSK3α (GST-full length GSK3α) (P49840 whole entry): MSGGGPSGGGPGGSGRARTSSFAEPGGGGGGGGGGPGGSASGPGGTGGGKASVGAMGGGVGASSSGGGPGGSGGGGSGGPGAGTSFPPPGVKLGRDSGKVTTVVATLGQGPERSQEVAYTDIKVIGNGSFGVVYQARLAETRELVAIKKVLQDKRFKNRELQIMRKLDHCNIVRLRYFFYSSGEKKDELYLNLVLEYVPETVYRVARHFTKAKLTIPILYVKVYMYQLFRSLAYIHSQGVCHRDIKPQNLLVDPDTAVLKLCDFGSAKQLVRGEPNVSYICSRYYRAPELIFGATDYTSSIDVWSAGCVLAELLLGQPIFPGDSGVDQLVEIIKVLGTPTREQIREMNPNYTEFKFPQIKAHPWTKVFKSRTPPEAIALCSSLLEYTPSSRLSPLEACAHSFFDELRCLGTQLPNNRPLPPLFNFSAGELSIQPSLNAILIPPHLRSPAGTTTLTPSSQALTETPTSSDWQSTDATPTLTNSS

SMILES	IC50 ([1]; Table 16, IC50) [nM]	IC50 ([2]; Table 16, IC50) [nM]	also measured
CC[C@@]1(c2cccc(C(F)(F)F)c2)C2=C(Nc3n[nH]cc31)[C@H](C)N(Cc1ccccc1)C2=O [Compound 930331]	–	–	IC50 ([1]; IC50): 100 to 1000 nM; IC50 ([2]; IC50): ≤ 100 nM
CC[C@]1(c2cccc(C(F)(F)F)c2)C2=C(Nc3n[nH]cc31)[C@H](C)N(Cc1ccccc1)C2=O [Compound 930333]	–	–	IC50 ([1]; IC50): > 5000 nM; IC50 ([2]; IC50): > 5000 nM
CC1(C)CC(=O)C2=C(C1)Nc1n[nH]cc1[C@@]21CCCc2ccccc21 [Compound 930565]	> 5000	1000 to 5000	–
CC1(C)CC(=O)C2=C(C1)Nc1n[nH]cc1[C@]21CCCc2ccccc21 [Compound 930566]	100 to 1000	≤ 100	–
CCC1(c2cccc(-c3ccnc4c3CCCC4)c2)C2=C(CC(C)(C)CC2=O)Nc2n[nH]cc21 (centres unmarked) [Compound 932625]	≤ 100	≤ 100	–
CCC1(c2cccc(-c3ccnc(OC(C)C)c3)c2)C2=C(CC(C)(C)CC2=O)Nc2n[nH]cc21 (centres unmarked) [Compound 932626]	100 to 1000	100 to 1000	–
CCC1(c2cccc(-c3ccncc3OC)c2)C2=C(CC(C)(C)CC2=O)Nc2n[nH]cc21 (centres unmarked) [Compound 932627]	≤ 100	≤ 100	–
CCC1(c2cccc(-c3ccnc(OC)c3C)c2)C2=C(CC(C)(C)CC2=O)Nc2n[nH]cc21 (centres unmarked) [Compound 932628]	100 to 1000	≤ 100	–
CCC1(c2cccc(-c3ccnc(OC(F)F)c3)c2)C2=C(CC(C)(C)CC2=O)Nc2n[nH]cc21 (centres unmarked) [Compound 932629]	100 to 1000	≤ 100	–
CCC1(c2cccc(-c3cc(OC)ncc3F)c2)C2=C(CC(C)(C)CC2=O)Nc2n[nH]cc21 (centres unmarked) [Compound 932630]	≤ 100	≤ 100	–
CCC1(c2cccc(-c3ccnc4ccccc34)c2)C2=C(CC(C)(C)CC2=O)Nc2n[nH]cc21 (centres unmarked) [Compound 932631]	≤ 100	≤ 100	–
CC1(C)CC(=O)C2=C(C1)Nc1n[nH]cc1C21CCCN(S(=O)(=O)Cc2ccccc2)CC1 (centres unmarked) [Compound 932632]	–	–	IC50 ([1]; Table 16): 100 to 1000 nM; IC50 ([2]; Table 16): ≤ 100 nM
CC1(C)CC(=O)C2=C(C1)Nc1n[nH]cc1C21CCCN(c2ccncc2)CC1 (centres unmarked) [Compound 932633]	> 5000	> 5000	–
CCC1(c2cccc(N(C)c3ccc(C(F)(F)F)nc3)c2)C2=C(CC(C)(C)CC2=O)Nc2n[nH]cc21 (centres unmarked) [Compound 932634]	100 to 1000	≤ 100	–
CCC1(c2cccc(-c3ccnc(C)c3)c2)C2=C(CC(C)CC2=O)Nc2n[nH]cc21 (centres unmarked) [Compound 932637]	> 5000	> 5000	–
CCC1(c2cccc(-c3ccnc(C)c3)c2)C2=C(CC(C)CC2=O)Nc2n[nH]cc21 (centres unmarked) [Compound 932638]	> 5000	> 5000	–
CC1(C)CC(=O)C2=C(C1)Nc1n[nH]cc1[C@@]21CCCN(S(=O)(=O)C2CC2)CC1 [Compound 932639]	–	–	IC50 ([1]; Table 16): 100 to 1000 nM; IC50 ([2]; Table 16): ≤ 100 nM
Cn1nccc1S(=O)(=O)N1CC2(C1)C1=C(CC(C)(C)CC1=O)Nc1n[nH]cc12 [Compound 932648]	–	–	IC50 ([1]; Table 16): ≤ 100 nM; IC50 ([2]; Table 16): ≤ 100 nM
Cn1nccc1S(=O)(=O)N1CCC2(CC1)C1=C(CC(C)(C)CC1=O)Nc1n[nH]cc12 [Compound 932649]	–	–	IC50 ([1]; Table 16): ≤ 100 nM; IC50 ([2]; Table 16): ≤ 100 nM

Continued, in another order:

IC50 ([1]; Table 16, IC50) [nM]	IC50 ([2]; Table 16, IC50) [nM]	SMILES	also measured
100 to 1000	≤ 100	CCC1(c2cccc(N(C)c3ccnc(OC)c3)c2)C2=C(CC(C)(C)CC2=O)Nc2n[nH]cc21 (centres unmarked) [Compound 932642]	–
1000 to 5000	100 to 1000	CCC1(c2cccc(N3CCOc4ncccc43)c2)C2=C(CC(C)(C)CC2=O)Nc2n[nH]cc21 (centres unmarked) [Compound 932643]	–
1000 to 5000	100 to 1000	CCC1(c2cccc(N(C)c3ccnc(C)c3)c2)C2=C(CC(C)(C)CC2=O)Nc2n[nH]cc21 (centres unmarked) [Compound 932645]	–
> 5000	> 5000	CC(C)N1CC2(C1)C1=C(CC(C)(C)CC1=O)Nc1n[nH]cc12 [Compound 932650]	–
> 5000	> 5000	CC1(C)CC(=O)C2=C(C1)Nc1n[nH]cc1C21CN(C2CCOCC2)C1 [Compound 932651]	–
> 5000	> 5000	Cn1ccc(CN2CC3(C2)C2=C(CC(C)(C)CC2=O)Nc2n[nH]cc23)n1 [Compound 932652]	–
